In PubChem BioAssay (NCI) one finds GI50 and TGI data, which are given here for 15 compounds.

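How tested: cells in 96-well plates exposed to compound for 48 hours at five concentrations. GI50 marks 50% less growth. The concentration for full growth arrest is given as TGI.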

Some test systems named below: NCI-H522 lung; SN12C renal; SNB-19 CNS; SNB-75 CNS; HCT-116 colon; UACC-62 melanoma; SK-MEL-2 melanoma; HCC-2998 colon.
Test in all cases: growth of human tumour cells (NCI), 48 h

As for `Cc1ccc(-c2nc3nc(-c4ccc(F)cc4)nc(N4CCNCC4)c3o2)cc1`, the GI50 in the assay with NCI-H522 lung is 2.18 µM; in the assay with SN12C renal, 5.54 µM; with SNB-19 CNS it was 5.97 µM; in the assay with SNB-75 CNS, 11.6 µM; with HCT-116 colon it was 1.7 µM; in the assay with UACC-62 melanoma, 15.4 µM. Also, the GI50 in the assay with SK-MEL-2 melanoma is 14.9 µM; with HCC-2998 colon, 4.11 µM. In addition, the TGI is 6.19 µM in the assay on NCI-H522 lung; 19.8 µM in the assay with SN12C renal; 19.8 µM in the assay on SNB-19 CNS; 23.9 µM with SNB-75 CNS; 3.32 µM with HCT-116 colon; 29.9 µM in the assay on UACC-62 melanoma. Also, the TGI in the assay with SK-MEL-2 melanoma was 35.4 µM; with HCC-2998 colon it was 15.8 µM.

For the compound `O=Cc1cccc2ccc3ccccc3c12`, the TGI turned out to be 52 µM in the assay with NCI-H522 lung; 88.5 µM in the assay on SN12C renal; 65.5 µM in the assay with SNB-19 CNS; 43.6 µM with SNB-75 CNS; 39.4 µM with HCT-116 colon; 76 µM in the assay with UACC-62 melanoma. Also, the values for the TGI with SK-MEL-2 melanoma and in the assay on HCC-2998 colon were 38 µM and 94 µM, respectively.

`CCN1CCC(CC(=O)Nc2n[nH]c3nnc(-c4cccc(F)c4F)cc23)CC1`: the GI50 in the assay on NCI-H522 lung was greater than 25 µM; in the assay on SN12C renal, greater than 25 µM; with SNB-19 CNS it was greater than 25 µM; in the assay with HCT-116 colon, 24.9 µM; in the assay on UACC-62 melanoma, greater than 25 µM; in the assay with SK-MEL-2 melanoma it was 16.9 µM. Further, in the assay on HCC-2998 colon, the GI50 was greater than 25 µM. For the same compound, the TGI in the assay with NCI-H522 lung, in the assay with SN12C renal, in the assay on SNB-19 CNS, with SNB-75 CNS, in the assay with HCT-116 colon and with UACC-62 melanoma was greater than 25 µM in each case. Moreover, the TGI with SK-MEL-2 melanoma and in the assay on HCC-2998 colon was greater than 25 µM in each case.

As for `Oc1c(C(Nc2ccccn2)c2cccc(Oc3ccccc3)c2)ccc2cccnc12` (stereo not drawn), the GI50 in the assay on NCI-H522 lung is 0.492 µM; in the assay with SN12C renal, 0.591 µM; in the assay on SNB-19 CNS, 0.366 µM; in the assay on SNB-75 CNS it was 0.433 µM; in the assay with HCT-116 colon, 0.449 µM; in the assay with UACC-62 melanoma, 0.31 µM. The GI50 with SK-MEL-2 melanoma is 1.68 µM; in the assay on HCC-2998 colon, 1.84 µM. Besides, the TGI was 18.6 µM in the assay with NCI-H522 lung; 20.9 µM in the assay with SN12C renal; 14.7 µM in the assay with SNB-19 CNS; 11.4 µM in the assay on SNB-75 CNS; 16.6 µM in the assay with HCT-116 colon; 1.29 µM in the assay with UACC-62 melanoma. For the same compound, the TGI was 21 µM with SK-MEL-2 melanoma and 32.6 µM in the assay with HCC-2998 colon.

Consider `CCCCCCC1N=C(N)N=C(N)N1c1cccc(Cl)c1` (stereo not drawn), for which the GI50 in the assay on NCI-H522 lung was 0.701 µM; with SN12C renal, 0.559 µM; with SNB-19 CNS it was 0.255 µM; in the assay with SNB-75 CNS, 0.347 µM; in the assay on HCT-116 colon, 0.0747 µM; in the assay on UACC-62 melanoma, 0.527 µM. The GI50 in the assay with SK-MEL-2 melanoma was 11.3 µM; with HCC-2998 colon, 0.668 µM. Moreover, the TGI amounted to 14.1 µM with NCI-H522 lung; 13.1 µM with SN12C renal; 8.58 µM with SNB-19 CNS; 6.75 µM in the assay with SNB-75 CNS; 14.3 µM in the assay with HCT-116 colon; 12.3 µM in the assay on UACC-62 melanoma. In addition, the figures for the TGI in the assay with SK-MEL-2 melanoma and in the assay on HCC-2998 colon were 27.7 µM and 11.2 µM, respectively.

With `CCn1c(-c2nonc2N)nc2c(C#CC(C)(C)O)ncc(OC3CCNCC3)c21`, the GI50 in the assay with NCI-H522 lung is 4.42 µM; in the assay on SN12C renal it was 9.21 µM; in the assay with SNB-19 CNS, 7.83 µM; in the assay with SNB-75 CNS, 1.42 µM; with HCT-116 colon it was 8.15 µM; in the assay with UACC-62 melanoma it was 15.8 µM. Moreover, the GI50 was 8.01 µM in the assay with SK-MEL-2 melanoma and 7.08 µM in the assay on HCC-2998 colon. In addition, the TGI was 8.82 µM with NCI-H522 lung; greater than 25 µM in the assay on SN12C renal; greater than 25 µM with SNB-19 CNS; greater than 25 µM in the assay on SNB-75 CNS; greater than 25 µM in the assay with HCT-116 colon; greater than 25 µM with UACC-62 melanoma. Further, the figures for the TGI with SK-MEL-2 melanoma and with HCC-2998 colon were 19.4 µM and greater than 25 µM, respectively.

Consider `CN1CCN(Cc2ccc(NC(=O)c3cncc(C#Cc4c(N)ncc5ccc(C#N)cc45)c3)cc2C(F)(F)F)CC1`, for which the GI50 is 0.748 µM with NCI-H522 lung; 2.97 µM in the assay on SN12C renal; 0.952 µM in the assay on SNB-19 CNS; 2.29 µM in the assay with SNB-75 CNS; 0.7 µM in the assay with HCT-116 colon; 0.668 µM with UACC-62 melanoma. For the same compound, the GI50 is 2.44 µM in the assay on SK-MEL-2 melanoma and 1.72 µM with HCC-2998 colon. Moreover, the TGI with NCI-H522 lung turned out to be 2.01 µM; in the assay on SN12C renal it was 7.35 µM; with SNB-19 CNS it was 1.79 µM; in the assay with SNB-75 CNS, 4.54 µM; in the assay with HCT-116 colon, 1.44 µM; with UACC-62 melanoma it was 1.42 µM. Also, the TGI with SK-MEL-2 melanoma is 9.56 µM; in the assay on HCC-2998 colon it was 5.03 µM.

Turning to `COc1cc2c3c(n(CCCN4CCNCC4)c(=O)c2cc1OC)-c1cc2c(cc1C3=O)OCO2`, the GI50 was 2.18 µM with NCI-H522 lung; 0.102 µM with SN12C renal; 0.835 µM in the assay with SNB-19 CNS; 1.44 µM with SNB-75 CNS; 0.281 µM in the assay on HCT-116 colon; 0.997 µM in the assay on UACC-62 melanoma. Also, the values for the GI50 in the assay with SK-MEL-2 melanoma and with HCC-2998 colon were 2.91 µM and 1.15 µM, respectively. The TGI in the assay on NCI-H522 lung worked out at 15.7 µM; with SN12C renal it was 0.491 µM; in the assay with SNB-19 CNS, 12.4 µM; with SNB-75 CNS, 11.1 µM; in the assay on HCT-116 colon, 2.42 µM; in the assay on UACC-62 melanoma, 7.61 µM. The TGI came to 28.3 µM with SK-MEL-2 melanoma and 3.98 µM in the assay with HCC-2998 colon.

With `O=C(O)CCCCn1ccc(=O)[nH]c1=O`, the TGI in the assay on NCI-H522 lung, in the assay with SN12C renal, in the assay with SNB-19 CNS, in the assay on SNB-75 CNS, with HCT-116 colon and in the assay on UACC-62 melanoma was greater than 100 µM in each case. Further, the TGI with SK-MEL-2 melanoma and in the assay on HCC-2998 colon was greater than 100 µM each time.

As for `C/C(CCC(=O)O)=N/Nc1ccc([N+](=O)[O-])cc1`, the GI50 in the assay on NCI-H522 lung was 0.738 µM; in the assay with SN12C renal, greater than 100 µM; in the assay on SNB-19 CNS, greater than 100 µM; with SNB-75 CNS it was greater than 100 µM; in the assay on HCT-116 colon, 4.31 µM; with UACC-62 melanoma, 0.492 µM. Besides, the results for the GI50 in the assay with SK-MEL-2 melanoma and with HCC-2998 colon were 66.3 µM and 5.94 µM, respectively. Further, the TGI in the assay with NCI-H522 lung was greater than 100 µM; in the assay on SN12C renal, greater than 100 µM; in the assay on SNB-19 CNS, greater than 100 µM; in the assay on SNB-75 CNS it was greater than 100 µM; with HCT-116 colon, greater than 100 µM; with UACC-62 melanoma, 62.3 µM. Moreover, the TGI in the assay with SK-MEL-2 melanoma and in the assay on HCC-2998 colon was greater than 100 µM throughout.

Take `Cc1ccc([P+](Cc2ccccc2)(c2ccccc2)c2ccccc2)cc1`: the GI50 was 1.78 µM in the assay with NCI-H522 lung; 2.66 µM in the assay on SN12C renal; 2.81 µM with SNB-19 CNS; 2.21 µM with SNB-75 CNS; 1.81 µM with HCT-116 colon; 1.77 µM with UACC-62 melanoma. In addition, the GI50 was 2.35 µM in the assay on SK-MEL-2 melanoma and 2.66 µM in the assay with HCC-2998 colon. Also, the TGI is 6.88 µM with NCI-H522 lung; 13.1 µM in the assay on SN12C renal; greater than 100 µM in the assay on SNB-19 CNS; 9.71 µM with SNB-75 CNS; greater than 100 µM in the assay with HCT-116 colon; 11.3 µM in the assay with UACC-62 melanoma. The TGI with SK-MEL-2 melanoma was 5.63 µM; in the assay on HCC-2998 colon, 25.1 µM.

Regarding `Cn1cc(C2=C(c3c4n(c5ccccc35)CCNC4)C(=O)NC2=O)c2ccccc21`, the GI50 in the assay with NCI-H522 lung is 4.65 µM; in the assay with SN12C renal it was 11.9 µM; with SNB-19 CNS it was greater than 22 µM; with SNB-75 CNS, 1.04 µM; in the assay on HCT-116 colon, 9.68 µM; with UACC-62 melanoma, 7.63 µM. Moreover, the GI50 in the assay on SK-MEL-2 melanoma was 8.03 µM; in the assay on HCC-2998 colon, 7.41 µM. Moreover, the TGI with NCI-H522 lung was greater than 19.1 µM; with SN12C renal, greater than 25 µM; in the assay on SNB-19 CNS it was greater than 25 µM; with SNB-75 CNS, 12 µM; in the assay with HCT-116 colon, greater than 25 µM; in the assay on UACC-62 melanoma, greater than 25 µM. Besides, the TGI was greater than 21.3 µM in the assay with SK-MEL-2 melanoma and greater than 17.4 µM in the assay with HCC-2998 colon.

Regarding `COC(=O)Oc1nn(C(=O)OC)c(=O)c2ccccc12`, the TGI in the assay on NCI-H522 lung, with SN12C renal, in the assay with SNB-19 CNS, in the assay with SNB-75 CNS, with HCT-116 colon and with UACC-62 melanoma was greater than 100 µM each time. In addition, the TGI with SK-MEL-2 melanoma and in the assay with HCC-2998 colon was greater than 100 µM each time.

Turning to `CNS(=O)(=O)OCC1OC(n2cnc3cncnc32)C(O)C1O` (stereo not drawn), the GI50 in the assay on NCI-H522 lung, with SN12C renal, with SNB-19 CNS, in the assay on SNB-75 CNS, in the assay on HCT-116 colon and with UACC-62 melanoma was greater than 100 µM in each case. Moreover, the GI50 with SK-MEL-2 melanoma and in the assay with HCC-2998 colon was greater than 100 µM in each case. Besides, the TGI in the assay with NCI-H522 lung, in the assay on SN12C renal, in the assay with SNB-19 CNS, in the assay on SNB-75 CNS, in the assay on HCT-116 colon and in the assay on UACC-62 melanoma was greater than 100 µM each time. Also, the TGI with SK-MEL-2 melanoma and with HCC-2998 colon was greater than 100 µM each time.

With `O=C([O][Hg][c]1ccccc1)c1ccccc1`, the GI50 with NCI-H522 lung was 0.275 µM; with SNB-19 CNS, 3.32 µM; with SNB-75 CNS it was 1.23 µM; with HCT-116 colon it was 1.45 µM; in the assay on UACC-62 melanoma it was 1.55 µM; in the assay on SK-MEL-2 melanoma, 1.35 µM. Besides, the GI50 in the assay on HCC-2998 colon was 2 µM. The TGI in the assay on NCI-H522 lung was 0.754 µM; in the assay on SNB-19 CNS it was 8.7 µM; in the assay on SNB-75 CNS it was 3.63 µM; with HCT-116 colon, 2.99 µM; in the assay with UACC-62 melanoma, 4.18 µM; in the assay with SK-MEL-2 melanoma it was 2.91 µM. The compound also showed a TGI in the assay with HCC-2998 colon of 3.82 µM.
